Results on two compounds are retold here after EP1362591A1, “Use of a composition containing 5-androstene-3 beta, 17-alpha diol” (LORIA, Roger M., priority 1996, dated 1997).

One data set deals with RAW 264.7. Nature of the data set: Proliferation of murine macrophage myeloma cells. As to conditions: Example 9. Format: cell-based. On the procedure:
(§1) For cell proliferation assays, cell suspensions were prepared by trypsinization of cells from cultures prepared in accord with methods described above. Cell viability was determined by trypan blue exclusion. The cells were then seeded in flat-bottom 96-well microtiter plates at a density of 2X10^3 cells/well and were allowed to rest for 48 hours in order to adhere. Non-adherent dead cells were removed by aspiration. Cells were then grown in media without phenol red. Some of the media contained supplements as indicated above. The active agents or vehicle control were added to the media. The cells were then grown for six days. Media was changed on the samples every 48 hours. On day 6, cells were pulsed with 1 µCi[…] for the last 6 hours of incubation before harvesting onto glass filter using a HPD cell harvester (Cambridge Technology, Watertown, Massachusetts) and counted on a KLB scintillation counter.
Effects of αAED at doses of 50 ηM and 100 ηM doses on murine macrophage myeloma cells (RAW 264.7, obtained from the American Type Culture Collection) was studied.

In a further data set the test system is P388D1 cells. Nature of the data set: Growth of lymphoid neoplasm cells in the presence of RU486. The class given is cell-based. As to conditions: Example 8; RU486 at 0.5 µM and 1.0 µM. The protocol: as §1
Effect of αAED on growth of lymphoid neoplasm (P388D1 cells obtained from the American Type Culture Collection) in the presence of RU486 at concentration of 0.5 µM and 1.0 µM was studied in accord with the methods described above.

Data set [1] has as its system ZR-75-1 cells. Nature of the data set: Cell proliferation assay, tritiated thymidine incorporation. The class given is cell-based, human. The note with it: for cell proliferation: Example 1, six day period. The protocol: The βAED, 17 beta-oestradiol and tamoxifen were obtained from Sigma Chemical Company (St. Louis, Missouri). The αAED and Flutamide were obtained from Steriloid, Inc. (Walton, New Hampshire) and Schering Corporation (Kenilworth, New Jersey), respectively. All steroids except βAED were dissolved in ethanol. βAED was dissolved in DMSO:ETHOL (1:1 v/v). Stock solutions were filtered and kept at 4°C. For testing, stock solutions were diluted in media immediately before use. The final concentration of vehicle was always ≤ 0.2% in all samples, and this concentration had no significant cytotoxic effect on the human breast cell cancer cell line designated ZR-75-1 (American Type Culture Collection) as determined by trypan blue exclusion.
The ZR-75-1 cell line (passage 89) was obtained from the American Type Culture Collection (Rockville, Maryland). The cells were cultured in RPMI-1640 medium containing 10% heat-inactivated fetal calf serum, 200 µM L-glutamine, […], 1.5 U/ml penicillin, and 1.5 µg/ml streptomycin in 5% CO2 at 37°C. The cells were passaged twice weekly.
(§2) Cells were first seeded at initial density of 1x10^5 cells per ml in quadruplicates in 24 multi-well flat bottom plates (Costar). Cells were then allowed to adhere and grow in phenol red-free […] media supplemented with 10 % heat-inactivated fetal calf serum (FCS), 200 µM L-glutamine, 10 mM HEPES, 2.5 U/ml penicillin and 2.5 µg/ml streptomycin in 5% CO2 at 37°C. After 48 hours, four wells were sacrificed and counted to determine plating efficiency. In the remaining wells, medium was removed by aspiration and cells in each well were exposed to the media containing the specified steroid. The controls containing only medium or medium with vehicle were also prepared. In all samples, medium was changed every 48 hours. At the pre-established time-point. Cells were removed by trypsinization and washed. Cell number and viability were determined by trypan blue exclusion using a hemocytometer. Parallel cultures were also run to determine cell proliferation.
as §1
On the technique in general: Dividing cells build labelled thymidine or BrdU into new DNA.

Data set [2] relates to ZR-75-1 cells. Nature of the data set: Cell count and viability by trypan blue exclusion. Format: cell-based, human. The protocol: as §2
Initial tests were carried out to determine the optimal (maximal) dose of αAED required to inhibit growth of the ZR-75-1 cells in in vitro as determined by tritiated tymidine incorporation. […] To ensure that inhibition was not due to cytotoxicity, cell count and viability were assessed by trypan blue exclusion.

Consider `C[C@]12CC[C@H]3[C@@H](CC=C4C[C@@H](O)CC[C@@]43C)[C@@H]1CC[C@H]2O` [αAED, 5-androstene 3ß,17α diol], for which the proliferation entry in the data set with RAW 264.7 (50 ηM) and with RAW 264.7 (100 ηM) was “significant inhibition of proliferation” in each case. For the same compound, the “growth of lymphoid neoplasm in combination with RU486” value in the data set with P388D1 cells is “increased effectiveness over use of one agent”. For the same compound, the cell proliferation entry is “increasing proliferation” with ZR-75-1 cells [1] (6.25 ηM), “decreasing cell proliferation” with ZR-75-1 cells [1] (25 ηM) and “marked decrease” in the data set on ZR-75-1 cells [1] (50 ηM). The “proliferation of cells in the presence of βAED” value in the data set with ZR-75-1 cells [1] (Example 2, varied αAED with βAED constant at 2.5 ηM) is listed as “decreased proliferation at all concentrations”. The “proliferation in the presence of estradiol” value in the data set with ZR-75-1 cells [1] (Example 3, higher doses of αAED with 1 ηM estradiol, 6 day period) is “suppressed proliferation even in the presence of estradiol”. The “antiproliferative effects in the presence of Flutamide” value in the data set with ZR-75-1 cells [1] (Example 4, ≥6.25 ηM αAED) is given as “greatly enhanced”. For the same compound, the “synergism with RU486” value with ZR-75-1 cells [1] (Example 5, RU486 1 µM) is “even greater”. In the data set on ZR-75-1 cells [1] (Example 5, concentrations of αAED with 0.5 µM RU486), the “proliferation of cells in the presence of RU486” value is listed as “synergistic action to decrease proliferation of cells”. Further, the IC50 in the data set with ZR-75-1 cells [1] (Homo sapiens, dose and time-dependent inhibition of ZR-75-1 growth, read-out: half-maximal dose (anti-proliferative effect)) turned out to be 0.05 µM. Also, the “growth of ZR-75-1 cells” value in the data set on ZR-75-1 cells [1] (concentration of 25 ηM or greater) is given as “significantly inhibited the growth”. The “proliferation of ZR-75-1 cells” value with ZR-75-1 cells [1] (concentrations between 6.25 and 12.5 ηM, P<0.01 vs vehicle control) is given as “stimulated proliferation”. Further, the “maximal dose (anti-proliferative effect)” value in the data set on ZR-75-1 cells [1] (dose and time-dependent inhibition of ZR-75-1 growth) is listed as 100 ηM. In addition, the “effect on the growth of cells” value with ZR-75-1 cells [1] (doses ranging from 3.13 ηM to 50 ηM, compared to vehicle control after 6 days) is on record as “biphasic effect”. Also, in the data set on ZR-75-1 cells [2], the “cytotoxicity (cell count and viability)” value is recorded as “not toxic to the cells”.
For `C[C@]12CC[C@H]3[C@@H](CC=C4C[C@@H](O)CC[C@@]43C)[C@@H]1CC[C@@H]2O` [βAED, 5-androstene 3ß,17ß diol, reference compound], in the data set on ZR-75-1 cells [1] (alone at 100 ηM), the “antiproliferative effect on the growth of ZR-75-1 cells” value is “did not have any antiproliferative effect”.
